Laboratory results from PubChem BioAssay AID256 (DTP/NCI, 2004).
“And” between values parts separate entries of the source, which are not always exact repeats. Equal entries are not always repeated. Toxic doses and inconclusive results are not listed. The calls were made as follows: active = survival T/C of 150% or more; inactive = T/C below 125% in these data.

System: CD2F1 mice, L1210 leukemia ip, survival T/C
Test: NCI In Vivo Anticancer Drug Screen. Data for tumor model L1210 Leukemia (intraperitoneal) in CD2F1 (CDF1) mice
Conditions: higher = longer survival
How it was run: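 Vehicle-treated tumor-bearing mice served as controls (C) for compound-treated mice (T). Reported figure is T divided by C.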

[1] = endpoint: mean survival time, dose: 100.0 mg/kg/injection, schedule: Q04DX003 (ip), vehicle: saline with Tween-80
[2] = endpoint: mean survival time, dose: 100.0 mg/kg/injection, schedule: Q01DX009 (ip), vehicle: saline with Tween-80
[3] = endpoint: mean survival time, dose: 200.0 mg/kg/injection, schedule: Q04DX003 (ip), vehicle: saline with Tween-80
[4] = endpoint: mean survival time, dose: 400.0 mg/kg/injection, schedule: Q04DX003 (ip), vehicle: saline with Tween-80
[5] = endpoint: mean survival time, dose: 50.0 mg/kg/injection, schedule: Q01DX009 (ip), vehicle: saline with Tween-80
[6] = endpoint: mean survival time, dose: 200.0 mg/kg/injection, schedule: Q01DX009 (ip), vehicle: saline with Tween-80
[7] = endpoint: mean survival time, dose: 50.0 mg/kg/injection, schedule: Q01DX001 (ip), vehicle: saline

Measured: T/C

CC1=NNC(C)(C)C1
inactive: endpoint: mean survival time, dose: 25.0 mg/kg/injection, schedule: Q01DX009 (ip), vehicle: Klucel (hydroxypropylcellulose) (HPC) 96 % of control | endpoint: mean survival time, dose: 50.0 mg/kg/injection, schedule: Q01DX009 (ip), vehicle: Klucel (hydroxypropylcellulose) (HPC) 97 % of control | endpoint: mean survival time, dose: 100.0 mg/kg/injection, schedule: Q01DX009 (ip), vehicle: Klucel (hydroxypropylcellulose) (HPC) 92 % of control | endpoint: mean survival time, dose: 100.0 mg/kg/injection, schedule: Q01DX009 (ip), vehicle: saline 102 % of control | endpoint: mean survival time, dose: 200.0 mg/kg/injection, schedule: Q01DX009 (ip), vehicle: Klucel (hydroxypropylcellulose) (HPC) 97 % of control | endpoint: mean survival time, dose: 200.0 mg/kg/injection, schedule: Q01DX009 (ip), vehicle: saline 105 % of control | endpoint: mean survival time, dose: 400.0 mg/kg/injection, schedule: Q01DX009 (ip), vehicle: Klucel (hydroxypropylcellulose) (HPC) 97 % of control | endpoint: mean survival time, dose: 400.0 mg/kg/injection, schedule: Q01DX009 (ip), vehicle: saline 103 % of control

O=C(COc1ccc(F)cc1)OCCOC(=O)COc1ccc(F)cc1
inactive: endpoint: mean survival time, dose: 100.0 mg/kg/injection, schedule: Q04DX002 (ip), vehicle: saline with Tween-80 100 % of control | endpoint: mean survival time, dose: 200.0 mg/kg/injection, schedule: Q04DX002 (ip), vehicle: saline with Tween-80 95 % of control

CCCCCCCCCCCCCCCCCC(=O)CC
inactive: endpoint: mean survival time, dose: 100.0 mg/kg/injection, schedule: Q04DX002 (ip), vehicle: saline + alcohol 93 % of control | endpoint: mean survival time, dose: 200.0 mg/kg/injection, schedule: Q04DX002 (ip), vehicle: saline + alcohol 93 % of control | endpoint: mean survival time, dose: 400.0 mg/kg/injection, schedule: Q04DX002 (ip), vehicle: saline + alcohol 93 % of control

CCN(CC)C1=CC(=O)c2ccccc2C1=O
inactive: endpoint: mean survival time, dose: 25.0 mg/kg/injection, schedule: Q04DX003 (ip), vehicle: saline with Tween-80 102 % of control | endpoint: mean survival time, dose: 50.0 mg/kg/injection, schedule: Q04DX003 (ip), vehicle: saline with Tween-80 96 % of control | [1] 103 % of control

C=CCOCCC#N
inactive: [2] 95 % of control

COC1(c2ccccc2)c2ccccc2C(OC)(c2ccccc2)c2cc(Cl)ccc21 (centres undefined)
inactive: endpoint: mean survival time, dose: 100.0 mg/kg/injection, schedule: Q01DX001 (ip), vehicle: Klucel (hydroxypropylcellulose) (HPC) 96 % of control | endpoint: mean survival time, dose: 200.0 mg/kg/injection, schedule: Q01DX001 (ip), vehicle: Klucel (hydroxypropylcellulose) (HPC) 89 % of control

CC1CN1P(=O)(N1CC1C)N1CC1C (centres undefined)
inactive: endpoint: mean survival time, dose: 9.5 mg/kg/injection, schedule: Q01DX001 (ip), vehicle: saline 101 % of control | endpoint: mean survival time, dose: 19.0 mg/kg/injection, schedule: Q01DX001 (ip), vehicle: saline 106 % of control | endpoint: mean survival time, dose: 38.0 mg/kg/injection, schedule: Q01DX001 (ip), vehicle: saline 117 % of control

O=[N+]([O-])c1ccc2c([N+](=O)[O-])ccc3c2c1CC3
inactive: [1] 100 % of control | [3] 109 % of control | [4] 97 % of control

Cn1ccoc1=NC1CCCCC1
inactive: [5] 94 % of control | [2] 94 % of control | [6] 91 % of control

CC(C)OC(=O)C#CC(=O)O
inactive: endpoint: mean survival time, dose: 25.0 mg/kg/injection, schedule: Q01DX001 (ip), vehicle: saline 97 % of control | [7] 97 % of control

CCOC(=O)c1cc(=O)n(C)c2ccc(OCC)cc12
inactive: endpoint: mean survival time, dose: 100.0 mg/kg/injection, schedule: Q01DX009 (ip), vehicle: saline sonified 101 % of control | [1] 100 % of control | endpoint: mean survival time, dose: 200.0 mg/kg/injection, schedule: Q01DX009 (ip), vehicle: saline sonified 97 % of control | [3] 91 % of control | endpoint: mean survival time, dose: 400.0 mg/kg/injection, schedule: Q01DX009 (ip), vehicle: saline sonified 97 % of control | [4] 91 % of control

CCOC(=O)C1=C(C)O/C(=C/c2cccc(Cl)c2)C1=O
inactive: endpoint: median survival time, dose: 50.0 mg/kg/injection, schedule: Q01DX009 (ip), vehicle: saline with Tween-80 107 % of control | endpoint: median survival time, dose: 100.0 mg/kg/injection, schedule: Q01DX009 (ip), vehicle: saline with Tween-80 110 % of control | endpoint: median survival time, dose: 200.0 mg/kg/injection, schedule: Q01DX009 (ip), vehicle: saline with Tween-80 112 % of control

COc1cc(NC(=O)CC(C)=O)cc(OC)c1OC
inactive: [2] 100 % of control | [1] 102 % of control | [6] 100 % of control | [3] 96 % of control | endpoint: mean survival time, dose: 400.0 mg/kg/injection, schedule: Q01DX009 (ip), vehicle: saline with Tween-80 101 % of control | [4] 96 % of control

S=C(Nc1ccccn1)NC1CC2C=CC1C2 (centres undefined)
inactive: endpoint: mean survival time, dose: 100.0 mg/kg/injection, schedule: Q01DX001 (ip), vehicle: saline with Tween-80 93 % of control | endpoint: mean survival time, dose: 200.0 mg/kg/injection, schedule: Q01DX001 (ip), vehicle: saline with Tween-80 101 % of control | endpoint: mean survival time, dose: 400.0 mg/kg/injection, schedule: Q01DX001 (ip), vehicle: saline with Tween-80 108 % of control

CCCCCCCCCCCCCCC/C(=C\c1ccc2ccccc2c1)[N+](=O)[O-]
inactive: endpoint: mean survival time, dose: 75.0 mg/kg/injection, schedule: Q01DX001 (ip), vehicle: other 95 % of control | endpoint: mean survival time, dose: 150.0 mg/kg/injection, schedule: Q01DX001 (ip), vehicle: other 89 % of control | endpoint: mean survival time, dose: 300.0 mg/kg/injection, schedule: Q01DX001 (ip), vehicle: other 102 % of control

N#CC1=C(C#N)C(=O)c2ccccc2C1=O
inactive: endpoint: mean survival time, dose: 25.0 mg/kg/injection, schedule: Q01DX009 (ip), vehicle: saline with Tween-80 98 % of control | [5] 97 % of control | [2] 88 % of control

Cc1cn(C2CC3OP(O)(=S)OCC3O2)c(=O)[nH]c1=O (centres undefined)
inactive: endpoint: mean survival time, dose: 8.7 mg/kg/injection, schedule: Q01DX005 (ip), vehicle: water 101 % of control | endpoint: mean survival time, dose: 17.5 mg/kg/injection, schedule: Q01DX005 (ip), vehicle: water 102 % of control | endpoint: mean survival time, dose: 35.0 mg/kg/injection, schedule: Q01DX005 (ip), vehicle: water 101 % of control | endpoint: mean survival time, dose: 70.0 mg/kg/injection, schedule: Q01DX005 (ip), vehicle: water 104 % of control

CC(=O)OC(CCl)C(Cl)CCl (centres undefined)
inactive: endpoint: mean survival time, dose: 12.5 mg/kg/injection, schedule: Q04DX002 (ip), vehicle: saline with Tween-80 103 % of control | endpoint: mean survival time, dose: 25.0 mg/kg/injection, schedule: Q04DX002 (ip), vehicle: saline with Tween-80 106 % of control | endpoint: mean survival time, dose: 50.0 mg/kg/injection, schedule: Q04DX002 (ip), vehicle: saline with Tween-80 92 % of control | endpoint: mean survival time, dose: 100.0 mg/kg/injection, schedule: Q01DX001 (ip), vehicle: saline sonified 95 % of control | endpoint: mean survival time, dose: 200.0 mg/kg/injection, schedule: Q01DX001 (ip), vehicle: saline sonified 95 % of control | endpoint: mean survival time, dose: 400.0 mg/kg/injection, schedule: Q01DX001 (ip), vehicle: saline sonified 108 % of control

COc1ccc(Br)cc1C1OC(=O)c2c(OC)c(OC)cc([N+](=O)[O-])c21 (centres undefined)
inactive: [1] 92 % of control | [3] 93 % of control

O=C1CC2CC1C1C3CCC(CC3)C21 (centres undefined)
inactive: endpoint: mean survival time, dose: 3.13 mg/kg/injection, schedule: Q01DX009 (ip), vehicle: saline with Tween-80 86 % of control | endpoint: mean survival time, dose: 6.25 mg/kg/injection, schedule: Q01DX009 (ip), vehicle: saline with Tween-80 101 % of control | endpoint: mean survival time, dose: 12.5 mg/kg/injection, schedule: Q01DX009 (ip), vehicle: saline with Tween-80 90 % of control and 98 % of control

CN=[N+]([O-])C1(OC(C)=O)CCCC1
inactive: [7] 110 % of control | endpoint: mean survival time, dose: 100.0 mg/kg/injection, schedule: Q01DX001 (ip), vehicle: saline 117 % of control

CCCCNc1nc2c(N)ncnc2n1C1OC(CO)C(O)C1O (centres undefined)
inactive: endpoint: mean survival time, dose: 12.5 mg/kg/injection, schedule: Q01DX005 (ip), vehicle: distilled water + Tween-80 100 % of control and 97 % of control | endpoint: mean survival time, dose: 25.0 mg/kg/injection, schedule: Q01DX005 (ip), vehicle: distilled water + Tween-80 102 % of control and 100 % of control | endpoint: mean survival time, dose: 50.0 mg/kg/injection, schedule: Q01DX005 (ip), vehicle: distilled water + Tween-80 100 % of control | endpoint: mean survival time, dose: 100.0 mg/kg/injection, schedule: Q01DX005 (ip), vehicle: distilled water + Tween-80 100 % of control and 102 % of control | endpoint: mean survival time, dose: 200.0 mg/kg/injection, schedule: Q01DX005 (ip), vehicle: distilled water + Tween-80 100 % of control and 103 % of control

CC1=NN(c2cccc(S(=O)(=O)O)c2)C(=O)C1Cl (centres undefined)
inactive: [5] 98 % of control | [2] 95 % of control | [6] 95 % of control
